According to ChEMBL document CHEMBL4834393, “Building a Chemical Toolbox for Human Pregnane X Receptor Research: Discovery of Agonists, Inverse Agonists, and Antagonists Among Analogs Based on the Unique Chemical Scaffold of SPA70” (J Med Chem, 2021):

Legend:
[1] = biological target: T1, Nuclear receptor subfamily 1 group I member 2 (Homo sapiens, UniProt O75469); assay: Agonist activity at human PXR expressed in HepG2 cells co-expressing luciferase gene under control of CYP3A4 promoter incubated for 24 hrs by luciferase reporter assay
T1 sequence (O75469 whole entry): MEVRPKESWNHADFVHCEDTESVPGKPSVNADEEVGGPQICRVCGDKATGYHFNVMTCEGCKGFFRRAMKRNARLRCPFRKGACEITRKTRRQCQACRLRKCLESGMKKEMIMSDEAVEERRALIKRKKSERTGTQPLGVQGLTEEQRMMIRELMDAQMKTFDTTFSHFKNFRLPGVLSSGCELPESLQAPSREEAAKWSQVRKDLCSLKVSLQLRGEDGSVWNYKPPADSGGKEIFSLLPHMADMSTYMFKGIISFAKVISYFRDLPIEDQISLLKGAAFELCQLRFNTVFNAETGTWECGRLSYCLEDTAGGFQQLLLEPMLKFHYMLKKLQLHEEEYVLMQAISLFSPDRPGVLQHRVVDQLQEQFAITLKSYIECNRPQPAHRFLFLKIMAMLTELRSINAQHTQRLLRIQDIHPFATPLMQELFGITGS

PXR (NR1I2) [2] = biological target: T2, PXR (NR1I2) (Homo sapiens, UniProt O75469); assay: Displacement of BODIPY FL vindoline from GST-tagged human PXR LBD at 10 uM incubated for 60 mins by TR-FRET assay relative to control; details: GST-tagged human PXR LBD (recombinant protein), probe BODIPY FL vindoline
T2 sequence (O75469 whole entry): T1 sequence (O75469 whole entry)

PXR (NR1I2) [3] = biological target: T2, PXR (NR1I2); assay: Agonist activity at human PXR expressed in HepG2 cells co-expressing luciferase gene under control of CYP3A4 promoter at 10 uM incubated for 24 hrs by luciferase reporter assay relative to control
PXR (NR1I2) [4] = biological target: T2, PXR (NR1I2); assay: Inhibition of human PXR expressed in HepG2 cells co-expressing luciferase gene under control of CYP3A4 promoter at 10 uM incubated for 24 hrs in presence of 5 uM rifampicin by luciferase reporter assay relative to control; type: cell-based
[5] = biological target: T1, Nuclear receptor subfamily 1 group I member 2; assay: Antagonist activity at human PXR expressed in HepG2 cells co-expressing luciferase gene under control of CYP3A4 promoter incubated for 24 hrs in presence of 5 uM rifampicin by luciferase reporter assay
[6] = biological target: T1, Nuclear receptor subfamily 1 group I member 2; assay: Displacement of BODIPY FL vindoline from GST-tagged human PXR LBD incubated for 60 mins by TR-FRET assay

SMILES	EC50 [1] [nM]	inhibition at 1 h, 10 µM (PXR (NR1I2) [2]) [%]	activity at 24 h, 10 µM (PXR (NR1I2) [3]) [%]	inhibition at 24 h, 10 µM (PXR (NR1I2) [4]) [%]	IC50 [5] [nM]	IC50 [6] [nM]
COc1ccc(OC)c(-n2cc(S(=O)(=O)c3ccc(C(C)(C)C)cc3)nn2)c1	1400	98	35	71	3400	1400
COC(=O)c1cc(OC)c(-n2nnc(S(=O)(=O)c3ccc(C(C)(C)C)cc3)c2C)cc1Cl	1900	35	62	51	10000	700
COc1cc(Br)c(Cl)cc1-n1nnc(S(=O)(=O)c2ccc(C(C)(C)C)cc2)c1C	600	67	26	38	–	550
COc1cc(Cl)c(C)cc1-n1nnc(S(=O)(=O)c2ccc(C(C)(C)C)cc2)c1C	800	71	51	57	2000	700
COc1ccccc1-n1nnc(S(=O)(=O)c2ccc(C(C)(C)C)cc2)c1C	800	103	56	53	1000	530
COc1cc(C#N)c(Cl)cc1-n1nnc(S(=O)(=O)c2ccc(C(C)(C)C)cc2)c1C	1000	40	49	44	3400	600
COc1ccc(CO)cc1-n1nnc(S(=O)(=O)c2ccc(C(C)(C)C)cc2)c1C	810	95	82	64	2000	1400
COc1ccc(OC)c(-n2nnc(S(=O)(=O)c3ccc(C(C)(C)C)cc3)c2C#N)c1	260	97	88	38	2400	300
COc1ccc(OC)c(-n2nnc(S(=O)(=O)c3ccc(C(C)(C)C)cc3)c2N)c1	430	85	53	52	1700	180
COc1cc(C#N)c(C)cc1-n1nnc(S(=O)(=O)c2ccc(C(C)(C)C)cc2)c1C	1600	48	58	33	4000	1070
COc1cc(-n2nnc(S(=O)(=O)c3ccc(C(C)(C)C)cc3)c2C)c(OC)cc1F	1000	87	24	72	2000	4000
COc1ccc(Cl)cc1-c1nc(C)c(S(=O)(=O)c2ccc(C(C)(C)C)cc2)n1C	1200	77	84	–	–	350
COc1cc(OC)c(-n2nnc(S(=O)(=O)c3ccc(C(C)(C)C)cc3)c2C)cc1OC	1050	90	124	–	–	1300
COc1ccc(OC)c(-n2nnc(S(=O)(=O)Cc3ccccc3)c2C)c1	3400	90	130	–	–	1000
COc1ccc(C)cc1-n1cc(S(=O)(=O)c2ccc(C(C)(C)C)cc2)nn1	600	98	69	44	5000	500
COc1ccc(C)cc1-c1nc(C)c(S(=O)(=O)c2ccc(C(C)(C)C)cc2)n1C	1000	73	89	–	–	400
COc1ccc(Cl)cc1-c1ncc(S(=O)(=O)c2ccc(C(C)(C)C)cc2)n1C	1210	60	81	–	–	550
COc1ccc(C(N)=O)cc1-n1nnc(S(=O)(=O)c2ccc(C(C)(C)C)cc2)c1C	2440	95	182	–	–	1100
COc1ccc([C@H](C)O)cc1-n1nnc(S(=O)(=O)c2ccc(C(C)(C)C)cc2)c1C	640	95	112	–	–	1300
COc1cc(-n2nnc(S(=O)(=O)c3ccc(C(C)(C)C)cc3)c2C)c(OC)cc1C(C)C	900	68	110	–	–	1000
COc1ccc(Cl)cc1-c1nc(C)c(S(=O)(=O)c2ccc(C(C)(C)C)cc2)[nH]1	500	81	100	–	–	900
COc1cc(-n2nnc(S(=O)(=O)c3ccc(C(C)(C)C)cc3)c2C)c(OC)cc1C	600	73	75	30	–	500
COc1ccc(C)cc1-n1nnc(S(=O)(=O)c2ccc(C(C)(C)C)cc2)c1C#N	160	97	131	–	–	210
COc1cc(-n2nnc(S(=O)(=O)c3ccc(C(C)(C)C)cc3)c2C)c(OC)cc1C(C)=O	500	48	97	–	–	900
COc1ccc(Cl)cc1-n1nnc(S(=O)(=O)c2ccc(C(C)(C)C)cc2)c1C(C)=O	200	96	104	–	–	400
